Measurements reported in patent US20160287553A1, “TRANSLATION INHIBITORS IN HIGH-DOSE CHEMO- AND/OR HIGH-DOSE RADIOTHERAPY” (DEUTSCHES KREBSFORSCHUNGSZENTRUM, priority 2013, published 2016).
“Also recorded” adds a separate entry of the source.

Key:
Peripheral blood T cells = experiment: Etoposide-induced apoptotic cell death of T cells (DNA fragmentation, AnnexinV, FSC/SSC)
Protocol: The human malignant cell lines EU-3 (acute lymphoblastic leukemia), DND-41 (T cell leukemia), Hut-78 (T cell lymphoma), SKW6.4 (B cell leukemia), Reh (acute lymphoblastic leukemia), IM-9 (Chronic myeloid leukemia), HL-60 (promyelocytic leukemia), L1236 (Hodgkin's lymphoma) and NCI-H209 (small cell lung cancer) were cultured at 37° C. with 5% CO2 in RPMI-1640 medium (Sigma-Aldrich, Munich, Germany) supplemented with 10% FCS, 100 U/ml Penicillin (Sigma-Aldrich, Munich, Germany) and 100 μg/ml Streptamycin (Sigma-Aldrich, Munich, Germany) SCLC-21H cells (small cell lung cancer) were cultured in DMEM medium (Sigma-Aldrich, Munich, Germany) supplemented with 10% FCS. Peripheral blood T lymphocytes were isolated as previously described (Klas et al., Int Immunol. 1993; 5: 625-630). B lymphocytes and NK cells were isolated by magnetic activated cell sorting using “B cell isolation kit II” (Miltenyi Biotech, Bergisch Gladbach, Germany) and “NK cell isolation kit, human” (Miltenyi Biotech, Bergisch Gladbach, Germany), respectively, according to the manufacturer's instructions. Human neutrophils were separated from peripheral blood mononuclear cells by Ficoll-Paque density centrifugation, followed by incubation in 1.05% dextran for 30 min at room temperature. Remaining erythrocytes were lysed by resuspension in ice-cold 0.2% sodium chloride solution. After 1 min ice-cold 1.6% sodium-chloride solution was added and lysis was stopped by addition of PBS and neutrophils were resuspended in medium at a concentration of 2×10^6 cells/ml. Human primary cardiomyocytes were purchased from PromoCell (Heidelberg, Germany) and cultured in Myocyte Growth Medium (PromoCell, Heidelberg, Germany). Remaining primary human cells were cultured in RPMI-1640 medium with the same conditions described above.
Apoptotic cell death was determined by AnnexinV staining, cellular forward scatter/side scatter (FSC/SSC) profile, or DNA fragmentation. For AnnexinV staining, 2×10^5 cells were treated with different drugs for indicated time periods, washed with AnnexinV binding buffer (0.01 M Hepes, 0.14 M NaCl, 2.5 mM CaCl2), and stained with AnnexinV-FITC antibody (Immunotools, Friesoythe, Germany) and 7-amino-actinomycin D (Sigma-Aldrich, Munich, Germany) for 30 min at 4° C. The amount of AnnexinV positive cells was determined by FACS measurement. DNA fragmentation was determined according to the method of Nicoletti (Nicoletti et al., J Immunol Methods. 1991; 139: 271-279). Briefly, 2×10^5 cells were treated as indicated, washed with PBS and lysed in Nicoletti buffer (0.1% sodium citrate, 0.1% Triton X-100, 50 μg/ml propidium iodide). DNA fragmentation was determined by FACS. Apoptosis-like cells were determined by forward scatter and side scatter (FSC/SSC) index. Specific DNA fragmentation/specific AnnexinV positive cells/specific apoptosis was calculated as follows: (percentage of experimental DNA fragmentation (or Annexin V positive cells or apoptosis)−percentage of spontaneous DNA fragmentation (or Annexin V positive cells or apoptosis)/(100−percentage of spontaneous DNA fragmentation (or Annexin V positive cells or apoptosis))×100.

Primary human T cells = experiment: Ionizing radiation (IR)-induced apoptosis in T cells; type: cell-based
Protocol: (§1) DNA fragmentation was determined by FACS.
The radioprotective effect mediated by Roc-A was the highest when cells were treated with Roc-A 1 h before radiation of cells (FIG. 1d). However, when cells were treated 4 h after radiation, the radioprotective effect was still higher than 50% (FIG. 1d).

[1] = system: IM-9 (Chronic myeloid leukemia), WT p53; experiment: Etoposide-induced cell death in IM-9; type: cell-based, human; settings: IM-9 (FIG. 5b)
Protocol: as §1
Since Roc-A-mediated protection of non-malignant cells from DNA-damage-induced cell death is largely p53-dependent, we predicted that Roc-A would not protect cancer cells which have non-functional p53. […] 1997; 19: 243-253), Reh (Zhou et al, loc cit.), SKW6.4 (Barbarotto et al., J Cell Biochem. 2008; 104: 595-605) and NCI-H209 (Fujita et al. Int J Oncol. 1999; 15: 927-934) which have a WT p53 protein.

p53 = p53 protein expression by immunoblot; type: cell-based, human
Protocol: Immunoblot analysis was carried out as previously described (Polier et al., Chem Biol. 2012; 19: 1093-1104). Briefly, 4-20×10^6 cells were treated with different reagents as indicated and lysed in RIPA buffer (50 mM Tris HCl, 137 mM NaCl, 0.5% Na Deoxycholate, 1% Triton X-100, 0.1% SDS, protease inhibitors). Proteins were separated by SDS-PAGE and transferred to a nitrocellulose membrane (Amersham Biosciences, Little Chalfon, UK) using a semi-dry blotting approach. The following antibodies were used: p53 (DO-1) antibody was purchased from Santa Cruz Biotechnology (Heidelberg, Germany). Tubulin and actin (A5441) antibodies were purchased from Sigma-Aldrich (St. Louis, USA).
The transcription factor p53 is a major regulator of DNA damage-induced apoptosis (Lowe et al., Cell. 1993; 74: 957-967). Therefore, we investigated the effect of Roc-A on the expression level of p53.
p53 protein expression can be regulated at the level of transcription, translation, and ubiquitination-mediated degradation (Marine & Lozano, Cell Death Differ. 2010; 17: 93-102). It has been shown that upon DNA damage p53 undergoes post-translational modifications leading to its deubiquitination and, thus, stabilization (Lee & Gu, Cell Death Differ. 2010; 17: 86-92). To investigate whether Roc-A could decrease p53 stability, we treated T cells with the proteasome inhibitor Bortezomib to block proteasome-mediated degradation.

Q: `COc1ccc([C@@]23Oc4cc(OC)cc(OC)c4[C@]2(O)[C@H](O)[C@H](C(=O)N(C)C)[C@H]3c2ccccc2)cc1` [Roc-A, (1R,2R,3S,3aR,8bS)-1,8b-dihydroxy-6,8-dimethoxy-3a-(4-methoxyphenyl)-N,N-dimethyl-3-phenyl-2,3-dihydro-1H-cyclopenta[b][1]benzofuran-2-carboxamide] was tested. Which “Protection of normal T cells from Etoposide-induced cell death by Roc-derivatives” value (Peripheral blood T cells; 50 μM Etoposide, 75 nM Roc-derivative, 24 h (FIG. 6b)) did it give?
A: different levels of protection

Q: And the “Toxicity of Etoposide, kinetic analysis” value (Peripheral blood T cells; 50 μM Etoposide, different concentrations of Roc-A, indicated time-periods (FIG. 1a middle))?
A: could reduce the toxicity of Etoposide at all measured time points

Q: What about the “Reduction of Etoposide-induced cell death of normal T cells” value (Peripheral blood T cells; 24 h, increasing concentrations of Etoposide, different concentrations of Roc-A, dose-dependent (FIG. 1a left, FIG. 7)) of the same molecule?
A: more than 50%

Q: What about the “Chemo-protective effect when Roc-A is administered after Etoposide” value (Peripheral blood T cells; Roc-A added 2 and 4.5 h after Etoposide (50 μM) (FIG. 1a right)) of the same molecule?
A: chemo-protective effect could be even seen

Q: What about the “Protection of T cells from Etoposide-induced apoptotic cell death” value (Peripheral blood T cells; Roc-A with Etoposide, FIG. 1a, FIG. 7) of the same molecule?
A: protects T cells from Etoposide-induced apoptotic cell death in a dose- and time-dependent manner; also recorded: reduces Etoposide-induced apoptosis in T cells

Q: And the “Radioprotective effect by time of Roc-A addition” value (Primary human T cells; Roc-A 1 h before radiation (10 Gy) (FIG. 1d))?
A: highest

Q: What about the “Radioprotective effect (percent of protection from IR-induced apoptosis)” value (Primary human T cells; Roc-A 4 h after radiation (10 Gy) (FIG. 1d)) of the same molecule?
A: higher than 50%

Q: What about the “Ionizing radiation-induced apoptosis in T cells” value (Primary human T cells; increasing doses of IR, different concentrations of Roc-A, 24 h (FIG. 1e)) of the same molecule?
A: reduced ionizing radiation-induced apoptosis in T cells

Q: What about the “Protection against Etoposide-induced cell death” value [1] of the same molecule?
A: protected by Roc-A from Etoposide-induced cell death but to a lesser extent than non-malignant cells

Q: And the “Etoposide-induced p53 increase” value (p53; B cells (FIG. 3d))?
A: inhibits Etoposide-induced p53 upregulation; also recorded: suppressed

Q: What about the “Etoposide-induced p53 increase” value (p53; NK cells (FIG. 3e)) of the same molecule?
A: inhibits Etoposide-induced p53 upregulation; also recorded: suppressed

Q: What about the “p53 upregulation by IR, Bleomycin, Teniposide, Doxorubicin” value (p53; T cells (FIG. 3b, f)) of the same molecule?
A: inhibits Etoposide-(a), Bleomycin-, Teniposide- and Doxorubicin-(b) induced p53 upregulation in T cells; also recorded: inhibition was also observed

Q: And the “Upregulation of p53, kinetic analysis” value (p53; T cells, 50 μM Etoposide, 75 nM Roc-A (FIG. 3c))?
A: could inhibit upregulation of p53 at all time-points analyzed

Q: What about the “Etoposide-induced p53 protein expression” value (p53; T cells, increasing Etoposide, different concentrations of Roc-A (FIG. 3a)) of the same molecule?
A: inhibits Etoposide-(a), Bleomycin-, Teniposide- and Doxorubicin-(b) induced p53 upregulation in T cells; also recorded: p53 expression was blocked in a dose-dependent manner
